Laboratory results as given in US20210290680A1, “METHODS AND COMPOSITIONS FOR MODULATING CELLULAR AGING” (Dorian Therapeutics, Inc., priority 2019, published 2021).

How the values were obtained:
primary T cells = assay: Stem cell memory T cell phenotype by flow cytometry (CD45RA+CD62L+); format: cell-based, human; details: CRISPR knockout, day 15 post-activation
Experimental: Primary T cells were activated as described (Example 3), transduced with a lentivirus encoding for either a shUSP16 or a non-targeting shRNA (Ctrl) and sorted for GFP on day 8. Cells were cultured in the presence of IL-2 and their phenotype was analyzed at day 20. Cells were stained for CD4-PerCP-5.5 or CD8-BV510, CD62L-Allophycocyanin, CD45RA-BV510 or PE-Cy7 (Biolegend). Naïve or stem cell memory T cells (TNa/SCM) were identified as Sytox^− GFP^+CD45RA^+CD62L^+. Number of TNa/SCM was calculated as (#CD4 or CD8 T cells*TNa/SCMpercentage)/100. Flow cytometry was performed on the MACQuant (Myltenyi Biotec) and the data analyzed with FlowJo (shCtrl vs shUSP CD4: 0.4978 vs 0.7915, p=0.0673 and CD8: 2.469 vs 4.984, p=0.00392, n=7). Downregulation of USP16 expression increases the number of CD4+CD45RA+CD62L+(FIG. 11A) and CD8+CD45RA+CD62L+(FIG. 11B) cells in culture by 1.7 (p=0.0205) and 1.9 (p=0.0097) times, respectively.
Primary T cells were activated as described (Example 3), transduced with a lentivirus encoding either a shUSP16 #1, shUSP16 #2 or a non-targeting shRNA (shCtrl) and cells were selected with puromycin at day 6. At day 15 cell were collected and analyzed by qPCR for the expression of LEF1 (FIG. 16A) and TCF7 (FIG. 16B), downstream regulators of the WNT pathway. At day 20, cells were stained for CD4-PE, CD8-BV510, CD62L-Allophycocyanin and CD45RA-APC-Cy7 (Biolegend). Stem cell memory T cells (Tscm) were identified as Sytox^− GFP^+CD45RA^+CD62L^+, central memory T cells (Tcm) as Sytox^−GFP^+CD45RA^−CD62L^+, effector memory T cells (Tem) as Sytox^−GFP^+CD45RA^−CD62L^−, and terminal effector T cell (Teff) as Sytox^−GFP^+CD45RA^+CD62L^− (FIG. 17A). Cells were gated on the CD8 population. The specific increase of Tscm was shown as phenotype ratio (FIG. 17B).
Primary T cells were activated as described (Example 3). At Day 6 post-activation, dynabeads were removed and T cells electroporated using the Neon Transfection System (ThermoFisher) with a 2.5:1 ratio sgRNA:Cas9. The experiment was performed following the protocol optimized for primary T cell by Synthego (CRISPR Editing Human Primary CD4+ T cells with RNPs using Neon Electroporation Protocol, 2018 version). The sgRNA used are the following: gUSP16 #1 5′-[…]-3′ (SEQ ID NO: 10) and gSynthego that comprises 3 different sgRNAs (gRNA-A: 5′-[…] 3′ (SEQ ID NO: 11); gRNA-B: 5′-[…]-3′ (SEQ ID NO: 12); gRNA-C: 5′-[…]-3′ (SEQ ID NO: 13)). Control T cells, identified as Mock, were electroporated but no Cas9:sgRNA mixture was added. […] At day 15 post-activation, cells were stained for CD4-PE, CD8-BV510, CD62L-Allophycocyanin and CD45RA-APC-Cy7 (Biolegend). Stem cell memory T cells (Tscm) were identified as Sytox^−GFP^+CD45RA^+CD62L^+ and graphed as ratio compared to mock cells (FIG. 22). The experiment was repeated using primary T cells obtained from buffy coats of 2 different healthy donors.
Primary T cells were activated as described (Example 3), transduced with a lentivirus encoding for either a CD19.CAR or a GD2.CAR co-expressing shUSP16 #1, shUSP16 #2 or a scrambled shRNA (Control). At day 15, GD2.CAR and CD19.CAR T cells were stained for EGFR-AF488 (R&D), CD3-PE, CD8-BV510, CD62L-Allophycocyanin and CD45RA-APC-Cy7 (Biolegend). Stem cell memory T cells (Tscm) were identified as FITC^+CD45RA^+CD62L^+, central memory T cells (Tcm) as FITC^+CD45RA^−CD62L^+, effector memory T cells (Tem) as FITC^+CD45RA^−CD62L^−, and terminal effector T cell (Teff) as FITC^+CD45RA^+CD62L^−. Cells were gated on the CD8 population. The specific increase of Tscm was shown as phenotype ratio (FIGS. 28A and 28B).

[1] = system: activated primary T cells; assay: Navitoclax-induced cell death (Sytox-negative cell count after 72 hours); format: cell-based, human; details: Younger T cells (day 12) compared with Older T cells (day 24)
Experimental: Activated primary T cells were treated with the indicated amount of Navitoclax. Navitoclax is a senolytic drug selectively targeting senescent cells (Zhu et al., Aging Cell, 2016). After 72 hours, Sytox-negative T cells were counted by flow cytometry using MACSQuant (Myltenyi Biotec). […] In each experiment two different primary T cell cultures were tested for each condition (four replicas for each condition). DMSO is a negative control. Navitoclax (cat #HY-10087) was purchased from MCE. Primary T cells were activated as described (Example 3) and transduced with a lentivirus encoding either a shUSP16 or a non-targeting shRNA (shC). T cells were then treated with the indicated amount of Navitoclax. After 72 hours, Sytox-negative GFP+ cells were counted, and the numbers of dead cells were calculated as 100%−(#treated/#untreated) cells. Two different time points were tested (day 12, day 22) with two different primary T cell cultures (four replicas per each condition).

Molecule	stem cell memory T cells, ratio compared to mock cells (primary T cells)	sensitivity to Navitoclax-induced cell death [1]
gSynthego: comprises 3 different sgRNAs (gRNA-A, gRNA-B, gRNA-C; SEQ ID NO: 11-13), electroporated with Cas9 (guide 1 GUGUGCAGACACAUUAGAAA; guide 2 UAUUGUCAGUCUUACAGUCU; guide 3 GUUUGGCUGUGUCUUAAAUG; listed as RNA, chemistry not given here)	1.49	–
CC1(C)CCC(c2ccc(Cl)cc2)=C(CN2CCN(c3ccc(C(=O)NS(=O)(=O)c4ccc(N[C@H](CCN5CCOCC5)CSc5ccccc5)c(S(=O)(=O)C(F)(F)F)c4)cc3)CC2)C1 [Navitoclax]	–	less sensitive
gUSP16 #1: sgRNA 5′-UGGCGUCAGAUAGUGCUUCA-3′ (SEQ ID NO: 10), electroporated with Cas9 (listed as RNA, chemistry not given here)	1.178	–
